Reference: US9856247B2, “4-methyl-dihydropyrimidines for the treatment and prophylaxis of Hepatitis B virus infection” (Hoffmann-La Roche Inc., priority 2012, dated 2018)

Legend:
in vitro = conditions: human
Description: The transfected cells were selected with G418 (also known as Genticin, purchased from Invitrogen). […] These cells were maintained in Dulbecco's modified Eagle's medium (DMEM)-F12 medium (Invitrogen) supplemented with 10% fetal bovine serum, 100 U/ml penicillin, and 100 μg/ml streptomycin, 0.5 mg/ml of G418 and 1 μg/ml tetracycline.
To determine if the anti-HBV effect of compound is due to cytotoxicity, HepDE 19 cells (5×10^3 cells/well) were seeded into 96-well plates and compounds were treated as described above. […] Four hours after incubation at 37° C., the absorbance at wavelengths of 450 nm and 630 nm (OD450 and OD630) was recorded by a plate reader.

HBV DNA = experiment: Anti-HBV activity in HepDE19 cells (HBV DNA dot-blot); assay type: cell-based, Hepatitis B virus (HBV); conditions: Hepatitis B virus, 120 h; HepDE19 cells, five days after compound treatment, concentration that inhibited HBV DNA by 50%; read-out: HepDe19 EC50
From the text: Cells and culture conditions: HepDE19 (Haitao Guo et al, Journal of Virology, 81, November 2007, 12472-12484; Richeng Mao et al, Journal of Virology, 85, January 2011, 1048-1057) cells were derived from HepG2 (ATCC, American Type Culture Collection) cells through transfection with pTet-off plasmid (Clontech) that expresses the Tet-responsive transcriptional activator and pTREHBVDE plasmid in which HBV pgRNA expression is controlled by a CMV early promoter with a tetracycline-responsive element. The transfected cells were selected with G418 (also known as Genticin, purchased from Invitrogen). […] These cells were maintained in Dulbecco's modified Eagle's medium (DMEM)-F12 medium (Invitrogen) supplemented with 10% fetal bovine serum, 100 U/ml penicillin, and 100 μg/ml streptomycin, 0.5 mg/ml of G418 and 1 μg/ml tetracycline.
Anti-HBV activity and cytotoxicity: HepDE19 cells were seeded into 96-well plates (3×10^4 cells/well) with tetracycline-free medium and incubated overnight at 37° C. The test or control compounds were serially half-log diluted with medium and added into the plates (the final concentration of DMSO kept at 0.5% in each well). Five days after compound treatment, cells were washed with PBS and lysed with 50 mM Tris-1 mM EDTA-0.2% CA-630 (pH 8.0) at 37° C. for 20 min. After centrifugation to remove nuclei and other debris, the supernatant was transferred into a new plate and incubated with 2M NaOH/20×SSC (3M NaCl, 0.3M Sodium citrate, pH7.0) at rt for 30 min. Then the samples were transferred to nylon membrane and neutralized with 1M Tris (pH7.4)/2M NaCl. The presence of HBV DNA was detected by dot-blot with DIG-labeled HBV specific DNA probe and quantified by dot density. The compound concentrations that inhibited HBV DNA by 50% (EC50) were determined (See Table 1).

| SMILES | CC50 at 5 days (in vitro) [µM] | EC50 (HBV DNA) [nM] |
| --- | --- | --- |
| COC(=O)C1=C(CN2CCOC[C@H]2C(=O)OC)NC(c2nccs2)=NC1(C)c1ccc(F)cc1 (stereo partly drawn) [Example 5, 4-[6-(4-Fluoro-phenyl)-5-methoxycarbonyl-6-methyl-2-thiazol-2-yl-3,6-dihydro-pyrimidin-4-ylmethyl]-morpholine-(S)-3-carboxylic acid methyl ester] | > 100 | 700 |
| COC(=O)C1=C(CN2CC(F)(F)C[C@H]2CO)NC(c2nccs2)=N[C@@]1(C)c1ccc(F)cc1 [Example 55, (S)-6-((S)-4,4-difluoro-2-hydroxymethyl-pyrrolidin-1-ylmethyl)-4-(4-fluoro-phenyl)-4-methyl-2-thiazol-2-yl-1,4-dihydro-pyrimidine-5-carboxylic acid methyl ester] | ≥ 100 | 67 |
| COC(=O)C1=C(CN2C[C@@H](F)C[C@H]2C(=O)O)NC(c2nccs2)=N[C@@]1(C)c1ccc(F)cc1 [Example 39, (S)-6-((2S,4S)-2-carboxy-4-fluoro-pyrrolidin-1-ylmethyl)-4-(4-fluoro-phenyl)-4-methyl-2-thiazol-2-yl-1,4-dihydro-pyrimidine-5-carboxylic acid methyl ester] | ≥ 100 | 10500 |
| COC(=O)C1=C(CN2CC(F)(F)C[C@H]2C(=O)O)NC(c2cc(F)cs2)=N[C@@]1(C)c1ccc(F)cc1 [Example 43, (S)-6-((S)-2-carboxy-4,4-difluoro-pyrrolidin-1-ylmethyl)-4-(4-fluoro-phenyl)-2-(4-fluoro-thiophen-2-yl)-4-methyl-1,4-dihydro-pyrimidine-5-carboxylic acid methyl ester] | ≥ 100 | 131 |
| COC(=O)C1=C(CN2CC(F)(F)C[C@H]2C(=O)O)NC(c2ncc(C)s2)=NC1(C)c1ccc(F)cc1 (stereo partly drawn) [Example 19, 6-((S)-2-Carboxy-4,4-difluoro-pyrrolidin-1-ylmethyl)-4-(4-fluoro-phenyl)-4-methyl-2-(5-methyl-thiazol-2-yl)-1,4-dihydro-pyrimidine-5-carboxylic acid methyl ester] | > 100 | 16700 |
| CCOC(=O)C1=C(CN2CC(F)(F)C[C@H]2C(=O)O)NC(c2nccs2)=N[C@@]1(C)c1ccc(F)c(F)c1 [Example 24, (S)-6-((S)-2-carboxy-4,4-difluoro-pyrrolidin-1-ylmethyl)-4-(3,4-difluoro-phenyl)-4-methyl-2-thiazol-2-yl-1,4-dihydro-pyrimidine-5-carboxylic acid ethyl ester] | ≥ 100 | 800 |
| COC(=O)C1=C(CN2CC(F)(F)C[C@H]2c2nnc(C)o2)NC(c2nccs2)=N[C@@]1(C)c1ccc(F)cc1 [Example 57, (S)-6-[(S)-4,4-difluoro-2-(5-methyl-[1,3,4]oxadiazol-2-yl)-pyrrolidin-1-ylmethyl]-4-(4-fluoro-phenyl)-4-methyl-2-thiazol-2-yl-1,4-dihydro-pyrimidine-5-carboxylic acid methyl ester] | ≥ 100 | 1560 |
| COC(=O)C1=C(CN2CC(F)(F)C[C@H]2c2nnn[nH]2)NC(c2nccs2)=N[C@@]1(C)c1ccc(F)cc1 [Example 58, (S)-6-[(S)-4,4-difluoro-2-(1H-tetrazol-5-yl)-pyrrolidin-1-ylmethyl]-4-(4-fluoro-phenyl)-4-methyl-2-thiazol-2-yl-1,4-dihydro-pyrimidine-5-carboxylic acid methyl ester] | ≥ 100 | 1020 |
| COC(=O)C1=C(CN2CC(F)(F)C[C@H]2C(=O)O)NC(c2sccc2F)=N[C@]1(C)c1ccc(F)cc1 [Example 42, (R)-6-((S)-2-carboxy-4,4-difluoro-pyrrolidin-1-ylmethyl)-4-(4-fluoro-phenyl)-2-(3-fluoro-thiophen-2-yl)-4-methyl-1,4-dihydro-pyrimidine-5-carboxylic acid methyl ester] | ≥ 100 | 6810 |
| COC(=O)C1=C(CN2CC(F)(F)C[C@H]2C(=O)O)NC(c2sccc2F)=N[C@@]1(C)c1ccc(F)cc1 [Example 41, (S)-6-((S)-2-carboxy-4,4-difluoro-pyrrolidin-1-ylmethyl)-4-(4-fluoro-phenyl)-2-(3-fluoro-thiophen-2-yl)-4-methyl-1,4-dihydro-pyrimidine-5-carboxylic acid methyl ester] | ≥ 100 | 285 |
| COC(=O)C1=C(CN2CCOC[C@@H]2C(=O)O)NC(c2ccc(F)cn2)=NC1(C)c1ccc(F)cc1 (stereo partly drawn) [Example 9, 4-[6-(4-Fluoro-phenyl)-2-(5-fluoro-pyridin-2-yl)-5-methoxycarbonyl-6-methyl-3,6-dihydro-pyrimidin-4-ylmethyl]-morpholine-(R)-3-carboxylic acid] | > 100 | 4180 |
| COC(=O)C1=C(CN2CC(F)(F)C[C@H]2C(=O)OC)NC(c2ccc(F)cn2)=NC1(C)c1ccc(F)cc1 (stereo in doubt) [Example 17, 6-(4,4-Difluoro-2-methoxycarbonyl-pyrrolidin-1-ylmethyl)-4-(4-fluoro-phenyl)-2-(5-fluoro-pyridin-2-yl)-4-methyl-1,4-dihydro-pyrimidine-5-carboxylic acid methyl ester] | 90 | 590 |
| COC(=O)C1=C(CN2CC(F)(F)C[C@H]2C(=O)O)NC(c2ncc(C)s2)=N[C@@]1(C)c1ccc(F)cc1 [Example 37, (S)-6-((S)-2-carboxy-4,4-difluoro-pyrrolidin-1-ylmethyl)-4-(4-fluoro-phenyl)-4-methyl-2-(5-methyl-thiazol-2-yl)-1,4-dihydro-pyrimidine-5-carboxylic acid methyl ester] | 85 | 470 |
| C[C@@]1(c2ccc(F)cc2)N=C(c2nccs2)NC(CN2CC(F)(F)C[C@H]2C(=O)O)=C1C#N [Example 21, (S)-1-[(S)-5-Cyano-6-(4-fluoro-phenyl)-6-methyl-2-thiazol-2-yl-3,6-dihydro-pyrimidin-4-ylmethyl]-4,4-difluoro-pyrrolidine-2-carboxylic acid] | > 100 | 21000 |
| CCOC(=O)C1=C(CN2CCOC[C@H]2C(=O)O)NC(c2nccs2)=NC1(C)c1ccc(F)c(F)c1 (stereo partly drawn) [Example 29, (S)-4-[6-(3,4-difluoro-phenyl)-5-ethoxycarbonyl-6-methyl-2-thiazol-2-yl-3,6-dihydro-pyrimidin-4-ylmethyl]-morpholine-3-carboxylic acid] | ≥ 100 | 3980 |
| COC(=O)C1=C(CN2CC(F)(F)CC2C(N)=O)NC(c2nccs2)=N[C@@]1(C)c1ccc(F)cc1 (stereo partly drawn) [Example 47, (S)-6-(2-carbamoyl-4,4-difluoro-pyrrolidin-1-ylmethyl)-4-(4-fluoro-phenyl)-4-methyl-2-thiazol-2-yl-1,4-dihydro-pyrimidine-5-carboxylic acid methyl ester] | ≥ 100 | 48 |
| CCOC(=O)C1=C(CN2CC(F)(F)C[C@H]2C(=O)O)NC(c2nccs2)=N[C@]1(C)c1ccc(F)c(F)c1 [Example 28, (R)-6-((S)-2-carboxy-4,4-difluoro-pyrrolidin-1-ylmethyl)-4-(3,4-difluoro-phenyl)-4-methyl-2-thiazol-2-yl-1,4-dihydro-pyrimidine-5-carboxylic acid ethyl ester] | ≥ 100 | 7480 |
| COC(=O)C1=C(CN2CCC(F)(F)CC2C(=O)O)NC(c2nccs2)=N[C@@]1(C)c1ccc(F)cc1 (stereo partly drawn) [Example 26, (S)-6-(2-carboxy-4,4-difluoro-piperidin-1-ylmethyl) 4-(4-fluoro-phenyl)-4-methyl-2-thiazol-2-yl-1,4-dihydro-pyrimidine-5-carboxylic acid methyl ester] | ≥ 100 | 1970 |
| COC(=O)C1=C(CN2CC(F)(F)C[C@H]2C(N)=O)NC(c2nccs2)=N[C@@]1(C)c1ccc(F)cc1 [Example 48, (S)-6-((S)-2-carbamoyl-4,4-difluoro-pyrrolidin-1-ylmethyl)-4-(4-fluoro-phenyl)-4-methyl-2-thiazol-2-yl-1,4-dihydro-pyrimidine-5-carboxylic acid methyl ester] | ≥ 100 | 80 |
| COC(=O)C1=C(CN2CC(F)(F)C[C@H]2C(=O)Nc2nccs2)NC(c2nccs2)=N[C@@]1(C)c1ccc(F)cc1 [Example 52, (S)-6-[(S)-4,4-difluoro-2-(thiazol-2-ylcarbamoyl)-pyrrolidin-1-ylmethyl]-4-(4-fluoro-phenyl)-4-methyl-2-thiazol-2-yl-1,4-dihydro-pyrimidine-5-carboxylic acid methyl ester] | 4.07 | 5430 |
